For orientation: pIC50 means the negative decadic logarithm of the IC50, by convention in mol/L.

Molecules are shown by their SMILES. pIC50: −log10 of the molar value.

Data set [1] has as its system U87 human GBM cell line tumor xenograft. Nature of the data set: Resected U87 GBM xenograft, different amounts of Formulation II (Example 9). The note with it: 300 mg/kg intraperitoneal, four times, every 7 days. On the procedure: This study was performed to assess the efficacy of the anti-tumor effect of different amounts of the sustained release compositions according to some exemplary embodiments of the invention on U87 human GBM cell line tumor xenograft in nude mice.
Mice were injected subcutaneously (SC) with 3 million U87 cells above the right hip. When the tumor reached the volume of about 400 mm^3 after about 9 days, animals were divided to six groups (n=10/group), the mice were anesthetized, and the tumors were resected. The tumor bed sizes were measured and documented. Groups 1, 2 and 3 were administered 20, 50, or 100 mg of formulation II; 0.87% docetaxel locally on the tumor bed, respectively. Group 4 was administered 100 mg of formulation II vehicle (excipients only without DTX) locally on the tumor bed. Group 5 served as a saline control in which ˜100 μL saline was administered locally into the tumor bed. Group 6 served as positive control and was treated with gemcitabine (300 mg/kg administered as an intraperitoneal injection, four times, every 7 days). The skin incision was then closed using a sterile suture. Post-surgery, the animals were returned to their cages for recovery and observation. Tumor size, clinical signs, and body weights were followed for 43 days.
After tumor resection, the area of the tumor bed was measured. […] The applications of Formulation II were calculated and normalized to amount per 1 cm^2 tumor bed area. The normalized application rates and docetaxel doses are detailed in Table 5.

In the next data set the test system is LLC1 cell line tumors. Nature of the data set: Antitumor and anti-metastatic effect on resected LLC1 tumors (Example 13). It is filed as in vivo. The note with it: 6 mg/kg IP twice a week. As for the experimental part: The objective of this study was to assess the efficacy of the antitumor and anti-metastatic effect of different amounts of Formulation II on mouse syngeneic louis lung carcinoma (LLC1) cell line tumors in C57BL mice. The selected cell line (LLC1) is known to spontaneously form metastases in the lungs originating from a primary tumor.
Male C57BL mice, 7-8 weeks old, weighing 18-21 grams were designated for this study. LLC1 tumor cells were injected SC to the back of the mice. When the tumors reached a volume of about 400 mm^3 they were resected (at least 90% of the tumor volume was removed; average area of 0.7 cm^2). The animals were divided into 6 groups (n=10). Groups 1-4 were administered different amounts of Formulation II directly to the tumor bed. Untreated group (Group 5) served as negative control and systemically treated group (Group 6) served as positive control. Five (5) animals served as sham group, they were not injected with tumor cells but underwent the surgical procedure (Group 7). Following treatment, the surgical site was sewed and animals were returned to their cages for recovery. Animals that had tumors larger than 1500 mm^3 were humanly terminated. At termination the number of metastases in the lungs was counted in each animal.
The number of metastases was counted post termination/death. In some cases, the lungs condition didn't allow evaluation of metastases. were too decomposed and therefore the number of metastases in these lungs were not evaluated. The counting discriminated between small metastases (0.1-0.5 mm) and big metastases (>0.5 mm). In case of large number of metastases (>100), it was defined as too numerus to count (TNTC).

Data set [2] relates to 9L GBM cell line tumor in the brain. Nature of the data set: Syngeneic 9L GBM intra-brain tumor survival (Example 10). Type of data set: in vivo, Fischer rats. On the procedure: Seventy-five (75) animals were designated for this study. The animals were divided into nine groups as described in Table 6. Group 1 served as untreated control. Groups 2 and 3 served as positive controls and were treated with temozolomide (SOC chemotherapy treatment in GBM patients) by gavage in low (33.5 mg/kg) and high doses (50 mg/kg), respectively. Group 4 (n=10) was treated with Formulation II vehicle at the defect site in the same amount as the Formulation II high amount group. Groups 5-8 (n=10/group) were treated at the excision site Formulation II at 5, 10, 25, or 50 mg/defect site. At study initiation, an incision was made and the calvarium bone of all animals was exposed and 5 mm diameter defect was drilled in the calvarium bone. The dura was cut and the brain was exposed. Each animal was injected with 9L cells (10^5 cells/2 μL/animal) at a depth of ˜1 mm in the brain using a stereotaxic instrument. Following injection of the cells, the incision was sutured. Animals were returned to their cages to recover. Treatment (temozolomide or Formulation II) was set to start five days post cell injection. For Formulation II/Formulation II vehicle treatment, the brain defects in Groups 4-8 were reopened and test articles were administered on top of the site of injection, inside the defect at Day 5. The defects were sealed with bone wax. Animals were returned to their cages to recover. Survival, clinical signs, body weight, and evaluation of cognitive behavior were followed during the study.

Data set [3] has as its system HCT-8 colorectal carcinoma cells. Conditions: cited from earlier work.
Another data set concerns KB-8-5 Epidermoid cells. Conditions: cited from earlier work.
The next data set has as its system KB-P-15 Epidermoid cells. Conditions: cited from earlier work.
In a further data set the test system is KB-D-15 Epidermoid cells. The note with it: cited from earlier work.
The subject of a further data set is KB-V-1 Epidermoid cells. Conditions: cited from earlier work.
The subject of data set [4] is KB-PTX/099 Epidermoid cells. The note with it: cited from earlier work.
Data set [5] concerns DLD-1 colorectal carcinoma cells. Conditions: cited from earlier work.
The subject of data set [6] is HCT-15 colorectal carcinoma cells. Conditions: cited from earlier work.
Data set [7] deals with A549.EpoB40 non squamous cell lung carcinoma. The note with it: cited from earlier work.

Turning to `Nc1ccn([C@@H]2O[C@H](CO)[C@@H](O)C2(F)F)c(=O)n1` [gemcitabine], in data set [1], the animals found dead is given as 4 and the “animals terminated due to tumor volume that exceeded 1500 mm^3” value worked out at 4. In data set [1] (Day 43), the survival rate was 20% and the tumor free animals is 2/10. The average tumor volume in data set [1] (after 43 days) was 780 mm^3.

For `CC(=O)O[C@H]1C(=O)[C@@]2(C)[C@H]([C@H](OC(=O)c3ccccc3)[C@]3(O)C[C@H](OC(=O)[C@H](O)[C@@H](NC(=O)c4ccccc4)c4ccccc4)C(C)=C1C3(C)C)[C@]1(OC(C)=O)CO[C@@H]1C[C@@H]2O` [taxel], in the data set on LLC1 cell line tumors, the “animals that had tumor” value is reported as 4/10, the average lung weight is 226 ± 114 mg, the average tumor volume is given as 490 mm^3 and the “average weight at termination lower than weight at t=0” value is 4%. Further, in the data set with LLC1 cell line tumors, the “metastases free animals (lungs)” value was 5/10. In the data set on LLC1 cell line tumors (day 23), the “animals early terminated due to tumor volume” value was “One”. For the same molecule, the animals found dead result in the data set with LLC1 cell line tumors (day 25) is “one”.

For the molecule `Cn1nnc2c(C(N)=O)ncn2c1=O` [Temozolomide], the mean survival in data set [2] (33.5 mg/kg PO daily for 5 days) came to 18.8 ± 2.7 days; in [2] (50 mg/kg PO daily for 5 days), 21.8 ± 3.3 days. Also, the survival rate in [2] (day 23, 33.5 mg/kg, 5 treatment days) was 0%.

Turning to `CC(=O)O[C@H]1C(=O)[C@@]2(C)[C@H]([C@H](OC(=O)c3ccccc3)[C@]3(O)C[C@H](OC(=O)[C@H](O)[C@@H](NC(=O)c4ccccc4)c4ccccc4)C(C)=C1C3(C)C)[C@]1(OC(C)=O)CO[C@@H]1C[C@@H]2O` [paclitaxel], the pIC50 in data set [3] is 5.48; in the data set on KB-8-5 Epidermoid cells it was 7.15; in the data set with KB-P-15 Epidermoid cells it was 6.93; in the data set with KB-D-15 Epidermoid cells it was 6.25; with KB-V-1 Epidermoid cells it was 5.49; in data set [4], 7.13. Also, the pIC50 in [5] was 7.48; in data set [6], 6.36; in data set [7] it was 6.89.

The record behind these values is patent US20240050396A1, “COMPOSITIONS AND METHODS FOR THE TREATMENT OF SOLID TUMORS” (POLYPID LTD., priority 2020, published 2024).
